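Compound exposure: 48 hours, 5 concentrations, 96-well plates. The concentration for 50% growth inhibition is given as GI50.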 Activity calls are given as the source filed them. Rule as the data show it: active = GI50 up to about 1.1 µM and inactive = higher.
Experiments:
Test in all cases: inhibition of tumour cell growth, NCI panel, 48 h
786-0 = system: 786-0
A549 = system: A549
EKVX = system: EKVX
HOP-62 = system: HOP-62
IGROV-1 = system: IGROV-1
KM12 = system: KM12
LOX IMVI = system: LOX IMVI
M14 = system: M14
OVCAR-3 = system: OVCAR-3
OVCAR-4 = system: OVCAR-4
SF-268 = system: SF-268
SF-295 = system: SF-295
SN12C = system: SN12C
SR = system: SR
Hs-578T = system: Hs-578T
MDA-N = system: MDA-N
PC-3 = system: PC-3
DU-145 = system: DU-145
T47D = system: T47D

| SMILES | GI50 (786-0) | GI50 (A549) | GI50 (EKVX) | GI50 (HOP-62) | GI50 (IGROV-1) | GI50 (KM12) | GI50 (LOX IMVI) | GI50 (M14) | GI50 (OVCAR-3) | GI50 (OVCAR-4) | GI50 (SF-268) | GI50 (SF-295) | GI50 (SN12C) | GI50 (SR) | GI50 (Hs-578T) | GI50 (MDA-N) | GI50 (PC-3) | GI50 (DU-145) | GI50 (T47D) |
| --- | --- | --- | --- | --- | --- | --- | --- | --- | --- | --- | --- | --- | --- | --- | --- | --- | --- | --- | --- |
| NS(=O)(=O)c1ccc(NC(=O)c2cccn3c(=O)c4ccccc4nc23)cc1 | > 100 µM (inactive) | > 100 µM (inactive) | > 100 µM (inactive) | > 100 µM (inactive) | > 100 µM (inactive) | 41.2 µM (inactive) | 86.3 µM (inactive) | > 100 µM (inactive) | > 100 µM (inactive) | > 100 µM (inactive) | > 100 µM (inactive) | > 100 µM (inactive) | > 100 µM (inactive) | 79.8 µM (inactive) |  |  |  |  |  |
| Cc1nnc([C@@]2(C)CC[C@H]3[C@@H](CC=C4C[C@@H](O)CC[C@@]43C)[C@@H]2CC#N)o1 | > 100 µM (inactive) | > 100 µM (inactive) | > 100 µM (inactive) | > 100 µM (inactive) |  | > 100 µM (inactive) | > 100 µM (inactive) | > 100 µM (inactive) | > 100 µM (inactive) | > 100 µM (inactive) | > 100 µM (inactive) | > 100 µM (inactive) | > 100 µM (inactive) | > 100 µM (inactive) | 11.6 µM (inactive) | > 100 µM (inactive) | > 100 µM (inactive) |  |  |
| O=c1cc(NNc2cccc(F)c2)[nH]c(=S)[nH]1 | 44.3 µM (inactive) | > 100 µM (inactive) | > 100 µM (inactive) | > 100 µM (inactive) | > 100 µM (inactive) | 96.8 µM (inactive) | 49.3 µM (inactive) | > 100 µM (inactive) | 26.9 µM (inactive) | > 100 µM (inactive) | 1.97 µM (inactive) | > 100 µM (inactive) | > 100 µM (inactive) | > 100 µM (inactive) | > 100 µM (inactive) | > 100 µM (inactive) | > 100 µM (inactive) | > 100 µM (inactive) |  |
| CCCCCC[C@H]1CC(=O)C2CCCC[C@@]23CC[C@H](CCl)N13.CCCCCC[C@H]1CC(=O)C2CCCC[C@@]23C[C@H](Cl)CN13 (some centres undefined) | > 100 µM (inactive) | 37 µM (inactive) | 49.9 µM (inactive) | 91.6 µM (inactive) | > 100 µM (inactive) | 49.8 µM (inactive) |  | 29.2 µM (inactive) | 25.1 µM (inactive) | 40.2 µM (inactive) | 65.2 µM (inactive) | 51.2 µM (inactive) | 82 µM (inactive) |  | 8.53 µM (inactive) |  | 23.3 µM (inactive) | 61 µM (inactive) |  |
| COC(=O)CCC1=CCC2(SC)C(=O)Nc3cccc1c32 (centres undefined) | > 100 µM (inactive) | > 100 µM (inactive) | 65.3 µM (inactive) | > 100 µM (inactive) | > 100 µM (inactive) | > 100 µM (inactive) | > 100 µM (inactive) | > 100 µM (inactive) | > 100 µM (inactive) | > 100 µM (inactive) | > 100 µM (inactive) | > 100 µM (inactive) | > 100 µM (inactive) | > 100 µM (inactive) | > 100 µM (inactive) |  | > 100 µM (inactive) | 44.5 µM (inactive) | 4.7 µM (inactive) |
| CC(NC(=O)C(N)CC(=O)O)C(=O)OC12CC3CC(CC(C3)C1)C2 (centres undefined) | > 100 µM (inactive) | > 100 µM (inactive) | > 100 µM (inactive) |  | > 100 µM (inactive) | > 100 µM (inactive) | > 100 µM (inactive) | > 100 µM (inactive) |  | > 100 µM (inactive) | > 100 µM (inactive) |  | > 100 µM (inactive) | > 100 µM (inactive) | > 100 µM (inactive) |  | > 100 µM (inactive) | 13.4 µM (inactive) |  |
| CCOc1ccc2c(c1)c(CC(=O)O)cn2C | > 100 µM (inactive) | > 100 µM (inactive) | > 100 µM (inactive) | > 100 µM (inactive) |  | > 100 µM (inactive) | > 100 µM (inactive) | > 100 µM (inactive) | > 100 µM (inactive) |  | > 100 µM (inactive) | > 100 µM (inactive) | > 100 µM (inactive) | > 100 µM (inactive) | > 100 µM (inactive) |  | > 100 µM (inactive) | > 100 µM (inactive) | > 100 µM (inactive) |
| COC(=O)[C@]12CCC(C)(C)C[C@H]1[C@H]1C(=O)C=C3[C@@]4(C)C=C(C#N)C(=O)C(C)(C)[C@@H]4CC[C@@]3(C)[C@]1(C)CC2 [BARDOXOLONE METHYL] | 0.0279 µM (active) | 0.0294 µM (active) | 0.0395 µM (active) | 0.0268 µM (active) | 0.0405 µM (active) | 0.0163 µM (active) | 0.0129 µM (active) | 0.0171 µM (active) | 0.0103 µM (active) | 0.162 µM (active) | 0.0238 µM (active) | 0.0289 µM (active) | 0.0237 µM (active) | 0.0245 µM (active) | 0.0321 µM (active) |  | 0.0165 µM (active) | 0.0239 µM (active) | 0.0288 µM (active) |

Source: ChEMBL document CHEMBL1201862, “PubChem BioAssay data set” (2004)
